Our source for the GI50 and TGI values is PubChem BioAssay (NCI).

Some test systems named below: HCT-15 colon; KM12 colon; MDA-MB-435; MOLT-4 leukemia; LOX IMVI melanoma; SNB-75 CNS; SF-268 CNS; MCF7 breast; A498 renal; 786-0 renal.
Assay in all cases: NCI-60 cell line screen, 48 h

Several values for one entry are separate records, joined by “and”; a condition that tells them apart may be missing. Identical values can stand only once.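 These data come from cells grown in 96-well plates and exposed to compound for 48 hours at five concentrations. GI50 marks 50% less growth. TGI denotes the concentration required for complete inhibition of growth.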 A value given as a limit tells only on which side of the number the result lay.

Turning to `C/C(=C(/c1ccc(O)cc1)c1ccc(Cl)cc1)c1ccccc1`, the GI50 in the assay with HCT-15 colon was 0.639 µM; in the assay with KM12 colon it was 0.543 µM; in the assay with MDA-MB-435, 0.534 µM; with MOLT-4 leukemia, 0.678 µM; with LOX IMVI melanoma, 0.432 µM; in the assay with SNB-75 CNS, 0.629 µM. Further, the GI50 in the assay with SF-268 CNS was 0.582 µM; with MCF7 breast, 0.767 µM; with A498 renal, 1.54 µM; in the assay with 786-0 renal, 0.558 µM. Also, the TGI amounted to 2.06 µM with HCT-15 colon; 1.22 µM in the assay on KM12 colon; 1.18 µM in the assay with MDA-MB-435; 2.41 µM with MOLT-4 leukemia; 0.788 µM with LOX IMVI melanoma; 1.96 µM in the assay with SNB-75 CNS. Further, the TGI with SF-268 CNS is 1.61 µM; with MCF7 breast it was 2.07 µM; with A498 renal, 5.06 µM; in the assay with 786-0 renal, 1.56 µM.
As to `COc1ccc([C@@H](O)c2cc(-c3ncnc4cc(N5CCOCC5)ccc34)c(F)cc2Cl)nn1`, the GI50 is 3.08 µM in the assay with HCT-15 colon; 5.47 µM with KM12 colon; 4.18 µM in the assay with MDA-MB-435; 1.08 µM in the assay on MOLT-4 leukemia; 2.84 µM in the assay on LOX IMVI melanoma; 0.371 µM in the assay with SNB-75 CNS. For the same molecule, the GI50 was 5.99 µM in the assay on SF-268 CNS, 0.592 µM with MCF7 breast, 0.228 µM in the assay with A498 renal and 1.1 µM in the assay on 786-0 renal. Also, the TGI in the assay on HCT-15 colon is 23.2 µM; in the assay on KM12 colon it was 24.1 µM; in the assay with MDA-MB-435 it was 37.4 µM; with MOLT-4 leukemia it was 41.1 µM; in the assay with LOX IMVI melanoma it was 24.8 µM; with SNB-75 CNS, 11.4 µM. Besides, the TGI in the assay with SF-268 CNS is over 100 µM; with MCF7 breast, 15.7 µM; in the assay with A498 renal, 0.943 µM; in the assay with 786-0 renal it was 25.3 µM.
Take `COc1cc2c(c(OC)c1OC)-c1ccc(O)c(=O)cc1[C@@H](NC(C)=O)CC2`: the GI50 with HCT-15 colon is 5.04 µM; with KM12 colon it was 8.68 µM; in the assay on MDA-MB-435 it was 14.3 µM; in the assay on MOLT-4 leukemia it was 4.66 µM; with LOX IMVI melanoma, 5.89 µM; in the assay with SNB-75 CNS it was 16.3 µM. The GI50 in the assay with SF-268 CNS was 7.42 µM; in the assay on MCF7 breast it was 4.37 µM; in the assay with A498 renal, 15 µM; in the assay with 786-0 renal it was 12.3 µM. For the same molecule, the TGI in the assay on HCT-15 colon was > 100 µM and 28 µM; with KM12 colon it was > 100 µM and 32.8 µM; in the assay on MDA-MB-435 it was > 100 µM and 47.4 µM; with MOLT-4 leukemia, 45.8 µM and 34.2 µM; in the assay on LOX IMVI melanoma, > 100 µM and 60.1 µM; with SNB-75 CNS, over 100 µM. For the same molecule, the TGI with SF-268 CNS was over 100 µM; with MCF7 breast, > 100 µM and 63.5 µM; in the assay with A498 renal, > 100 µM and 44.1 µM; in the assay on 786-0 renal it was 62 µM and 92.1 µM.
On to `COc1cc2ncnc3c2cc1OCCCCCN(C)Cc1ccc(Br)cc1N3`, for which the GI50 was 0.885 µM and 0.975 µM in the assay on HCT-15 colon; 13.2 µM and > 10 µM with KM12 colon; 8.63 µM and 7.39 µM in the assay with MDA-MB-435; 6.85 µM and 3.88 µM in the assay on MOLT-4 leukemia; 2.93 µM and 2.12 µM with LOX IMVI melanoma; 6.14 µM and 2.91 µM in the assay on SNB-75 CNS. The GI50 in the assay with SF-268 CNS was 29.5 µM and 4.01 µM; with MCF7 breast, 8.89 µM and 5.35 µM; with A498 renal, 1.35 µM and 0.539 µM; in the assay with 786-0 renal, 37.4 µM and 5.07 µM. Also, the TGI with HCT-15 colon was over 100 µM; in the assay with KM12 colon it was over 100 µM; with MDA-MB-435 it was over 100 µM; with MOLT-4 leukemia, over 100 µM; in the assay with LOX IMVI melanoma, over 100 µM; in the assay on SNB-75 CNS it was 64 µM and > 10 µM. The TGI was over 100 µM with SF-268 CNS; over 100 µM in the assay on MCF7 breast; 17.3 µM and > 10 µM with A498 renal; over 100 µM in the assay with 786-0 renal.
For the molecule `O=C(O)c1cccc(/C=C/c2ccccc2)c1`, the TGI with HCT-15 colon, with KM12 colon, in the assay with MDA-MB-435, with MOLT-4 leukemia, with LOX IMVI melanoma and in the assay with SNB-75 CNS was over 100 µM throughout. In addition, the TGI in the assay with SF-268 CNS, with MCF7 breast, in the assay with A498 renal and in the assay on 786-0 renal was over 100 µM each time.
`COC(=O)[C@H]1[C@H]2C[C@@H]3c4[nH]c5cc(OC)ccc5c4CCN3C[C@H]2C[C@@H](OC(=O)/C=C/c2cc(OC)c(OC)c(OC)c2)[C@@H]1OC`: the GI50 with HCT-15 colon is 4.32 µM; in the assay on KM12 colon it was 4.44 µM; in the assay on MDA-MB-435 it was 3.22 µM; in the assay with MOLT-4 leukemia, 3.33 µM; with LOX IMVI melanoma, 3.31 µM; in the assay on SNB-75 CNS, 5.19 µM. In addition, the GI50 in the assay on SF-268 CNS was 9.48 µM; in the assay with MCF7 breast, 4.75 µM; in the assay with A498 renal it was 4.23 µM; in the assay on 786-0 renal, 9.86 µM. Also, the TGI in the assay on HCT-15 colon is over 100 µM; in the assay with KM12 colon, 28.5 µM; with MDA-MB-435 it was 19.4 µM; in the assay on MOLT-4 leukemia, over 100 µM; in the assay with LOX IMVI melanoma, 13.1 µM; with SNB-75 CNS, 20.2 µM. In addition, the TGI was over 100 µM in the assay on SF-268 CNS, 23 µM in the assay with MCF7 breast, 18.6 µM in the assay with A498 renal and 26.3 µM with 786-0 renal.
For the molecule `Cc1cnc(Nc2ccc(OCCN3CCCC3)cc2)nc1Nc1cccc(S(=O)(=O)NC(C)(C)C)c1`, the GI50 was 0.33 µM and 1.79 µM with HCT-15 colon; 0.361 µM in the assay with KM12 colon; 0.121 µM and 1.14 µM in the assay on MDA-MB-435; 0.18 µM and 1.14 µM with MOLT-4 leukemia; 0.211 µM and 0.938 µM in the assay on LOX IMVI melanoma; 0.0852 µM and 0.286 µM in the assay with SNB-75 CNS. Besides, the GI50 in the assay with SF-268 CNS is 1.69 µM and 1.67 µM; in the assay with MCF7 breast, 0.143 µM and 0.775 µM; with A498 renal it was 0.144 µM and 0.385 µM; in the assay with 786-0 renal, 0.197 µM and 1.01 µM. For the same molecule, the TGI is 11.5 µM and > 10 µM with HCT-15 colon; 8.72 µM and > 10 µM in the assay on KM12 colon; 11.9 µM and > 10 µM with MDA-MB-435; 12.5 µM and > 10 µM in the assay on MOLT-4 leukemia; 1.61 µM and 2.3 µM with LOX IMVI melanoma; 0.686 µM and 1.76 µM in the assay with SNB-75 CNS. In addition, the TGI is 7.52 µM and > 8.99 µM with SF-268 CNS; 9.16 µM and > 10 µM in the assay on MCF7 breast; 0.869 µM and 1.57 µM in the assay with A498 renal; 3.95 µM and 2.86 µM in the assay on 786-0 renal.
